Two compounds from patent US8222008B2, “Methods and compositions for treating cancer” (The Administrators of The Tulane Educational Fund, priority 2003, dated 2012) can be followed below.

What all share (format): cell-based, human
In one assay the test system is T-47D (ER+). Briefly: Apoptosis in breast cancer cell lines, CaspACE assay with flow cytometry. The following applies: Tamoxifen 100 μM, 16 hours. The text has this: (§1) The apoptotic effect of CDME was compared to that of tamoxifen using the CaspACE™ assay system (Promega) and conventional flow cytometry techniques.
(§2) All cell lines were obtained from the American Type Culture Collection, P.O. Box 1549, Manassas, Va., 20108 unless otherwise indicated. The cell lines studied were estrogen receptor-negative breast cancer cell lines MDA-MB-231 (ATCC Accession No. HTB-26) and MDA-MB-468 (ATCC Accession No. HTB-132) and estrogen receptor-positive breast cancer cell lines, MCF-7 (ATCC Accession No. HTB-22) and T-47D (ATCC Accession No. HTB-133).
(§3) All cell lines were grown on the bottom of 12-well flasks in Gibco RPMI-1640, until they reached the confluency of about 50%. After that, the medium was exchanged with DMEM (Sigma, D-5030), supplemented with 10% charcoal-treated FBS.
(§4) After four days (at confluency of about 75%), cells were treated by exposure to either CDME (500 μM) or tamoxifen (100 μM) or neither for 16 hours at 37° C. CaspACE™ assay analysis of the treated and control cells was performed as described in Example 2 and measured via flow cytometry. Note that the dosage of tamoxifen was a maximum positive control dose, higher than that normally administered for chemotherapy.

Another assay has as its system MCF-7 (ER+). The description is as above. Particulars: Tamoxifen 100 μM, 16 hours.
From the text: as §1, §2, §3, §4

A further assay relates to MDA-MB-468 (ER−). The description is as above. Particulars: Tamoxifen 100 μM, 16 hours.
From the text: as §1, §2, §3, §4

Another assay relates to MDA-MB-231 (ER−). The assay is described as above. Particulars: Tamoxifen 100 μM, 16 hours.
From the text: as §1, §2, §3, §4

The subject of assay [1] is cathepsin B in normal and nephropathic cystinotic fibroblasts. Briefly: Cathepsin B localisation by immunohistochemistry. The following applies: after TNF-a exposure; Lysotracker red and anti-cathepsin B staining. Here is the method:
Cells were stained by Lysotracker® Red stain (Molecular Probes) for 5 minutes at room temperature, washed twice in PBS, and then fixed in 4% formalin for 1 hour. Slides were immersed in blocking buffer (PBS, pH 7.2, 0.5% Carnation® dry milk, 0.1% Triton® X-100 reagent) for 20 minutes at room temperature, washed twice in PBS, and then incubated with primary antibody (anti-cathepsin B, Santa Cruz Biotechnologies) diluted 1:100 for 2 hours at room temperature, followed by incubation with secondary antibody (FITC-conjugated rabbit anti-goat, Santa Cruz Biotechnologies), at 4° C. overnight. Slides were washed twice with PBS and then sealed with cover slips and viewed using a Leica® DMRX deconvoluting microscope.
To substantiate that lysosomes are perneabilized by TNF-a (Guicciardi M, 2000J. Clin. Invest., 106:1127-1137) under these conditions, cathepsin B (a lysosomal cysteine protease) was localized by immunohistochemistry in normal and nephropathic cystinotic cells before and after induction of apoptosis. Fibroblasts were maintained under normal culture conditions, exposed to TNF-a, loaded with Lysotracker® red reagent, fixed, and stained for cathepsin B using an anti-cathepsin B antibody. Photographs were made via a deconvoluting microscope.
Lysosomes were identified with Lysotracker red dye. […]

Assay [2] has as its system GM00046 nephropathic cystinotic fibroblasts. Briefly: Apoptosis by apoptotic triggers, TUNEL assay. The following applies: TNF-a 30 ng/mL with actinomycin D 2.5 μg/mL for 16 hours. Here is the method: (§5) Normal and cystinotic fibroblasts were purchased from the Coriell Mutant Cell Repository, and cultured in Coon modification of Ham F12 medium, supplemented with 10% fetal calf serum (FCS). Renal proximal tubule epithelial (RPTE; Biowhittaker Corp.) were cultured in renal epithelial basal medium supplemented with one Singlequots™ kit (Biowhittaker) per 500 mL to make renal epithelial growth media (REGM, Biowhittaker). Fibroblasts and RPTE were maintained in a 5% carbon dioxide, 95% air, humidified incubator at 37° C. (Thoene J. G. et al, 1976 J. Clin. Invest, 58:180-189).
(§6) Induction of apoptosis and assays for its detection were performed using commercially available reagents. Normal and cystinotic fibroblasts were matched for passage number (±3) and cell density, and then exposed to an apoptotic trigger. One apoptotic trigger used was TNF-a (30 ng/mL) with actinomycin D (2.5 μg/mL) for 16 hours. Another trigger was anti-Fas antibody (500 ng/mL) with actinomycin D (2.5 μg/mL) for 16 hours. A third trigger to induce apoptosis in the cells was Ultraviolet B light (60 mJ). See, e.g., previously described protocols of Aggarwal B B, 1992 Immunol. Ser., 56:61-78; Higuchi M. et al, 1995 J. Immunol. Meth., 178:173-181; Itoh N, et al, 1991 Cell, 66:233-243; Itoh N. et al, 1993 J. Biol. Chem., 268:10932-10937. Serum withdrawal was also used as a apoptotic stimulus (Lieberthal W, et al, 1998 Am. J. Physiol. 275:F691-F702; Verzola D. et al, 2001 Exp Nephrol., 9:366-371; Iglesias J. et al, 1999 Am. J. Physiol. 277:F711-F712; Kulkarni G V, et al, 1994 J. Cell Sci., 107:1169-1179), in which case the cells were incubated in F12 medium without serum for 24 hours and then analyzed for apoptosis.
(§7) 2. TUNEL Assay • The TUNEL assay employs terminal deoxynucleotidyl transferase (TdT) to label the ends of double stranded DNA breaks, which occur in apoptotic cells, with FITC-conjugated dUTP. Cells were fixed in 4% buffered formalin, washed, incubated in permeabilization solution (0.1% Triton X-100 in 0.1% Na Citrate) for 2 minutes on ice and then stained with 25 μL of TdT/45 μL of labeled dNTP mix for 40 minutes at 37° C. The cells were visually enumerated by fluorescence microscopy, scoring a minimum of five fields (250 to 300 cells) for fluorescence in triplicate followed by counting all cells in the same field by light microscopy, with a minimum of 750 cells scored per condition. The apoptosis rate is the total number of cells that fluoresce divided by the total cells in the field.
(§8) In another experiment, cells were treated with apoptosis inducers as indicated, stained with TUNEL reagent, and analyzed by florescence microscopy. A minimum of 250 cells were scored per conditions in triplicate. […] P>0.05 for ocular versus normal and intermediate; P=0.01 for ocular versus nephropathic.

Assay [3] concerns GM00379 intermediate cystinotic fibroblasts. Briefly: Apoptosis by apoptotic triggers, TUNEL assay. Particulars: TNF-a 30 ng/mL with actinomycin D 2.5 μg/mL for 16 hours. Here is the method: as §5, §6, §7, §8
Assay [4] has as its system normal fibroblasts (AVG of 2). Briefly: Apoptosis by apoptotic triggers, TUNEL assay. Particulars: TNF-a 30 ng/mL with actinomycin D 2.5 μg/mL for 16 hours, AVG of 2 normal lines. Here is the method: as §5, §6, §7, §8
Assay [5] has as its system GM05399 normal fibroblasts. Briefly: Apoptosis by apoptotic triggers, TUNEL assay. The following applies: TNF-a 30 ng/mL with actinomycin D 2.5 μg/mL for 16 hours. The method, then: as §5, §6, §7, §8
In assay [6] the test system is GM00010 normal fibroblasts. Briefly: Apoptosis by apoptotic triggers, TUNEL assay. Particulars: TNF-a 30 ng/mL with actinomycin D 2.5 μg/mL for 16 hours. Here is the method:
as §5, §6, §7, §8

The test system of assay [7] is nephropathic cystinotic fibroblasts (AVG of 3). Briefly: Apoptosis by apoptotic triggers, TUNEL assay. Particulars: TNF-a 30 ng/mL with actinomycin D 2.5 μg/mL for 16 hours, AVG of 3 nephropathic lines. Here is the method: as §5, §6, §7, §8
The subject of assay [8] is GM00008 nephropathic cystinotic fibroblasts. Briefly: Apoptosis by apoptotic triggers, TUNEL assay. Particulars: TNF-a 30 ng/mL with actinomycin D 2.5 μg/mL for 16 hours. The method, then: as §5, §6, §7, §8
Assay [9] concerns GM08761 ocular cystinotic fibroblasts. Briefly: Apoptosis by apoptotic triggers, TUNEL assay. Particulars: TNF-a 30 ng/mL with actinomycin D 2.5 μg/mL for 16 hours. The method, then: as §5, §6, §7, §8
The test system of assay [10] is GM00760 nephropathic cystinotic fibroblasts. Briefly: Apoptosis by apoptotic triggers, TUNEL assay. The following applies: TNF-a 30 ng/mL with actinomycin D 2.5 μg/mL for 16 hours. The method, then: as §5, §6, §7, §8
The test system of assay [11] is GM00046 nephropathic cystinotic fibroblasts. Briefly: Apoptosis by apoptotic triggers, CaspACE assay. Particulars: TNF-a 30 ng/mL with actinomycin D 2.5 μg/mL for 16 hours. The method, then: as §5, §6
(§9) 1. The CaspACE Assay • CaspACE (Promega) is an FITC-conjugated cell-permeable form of the pan-caspase inhibitor zVAD-Fmk, which binds to activated caspase(s). Cells were incubated in FITC-VAD-Fmk-containing medium (10 μM for 30 minutes at 37° C.), washed, and then fixed in 10% buffered formalin (30 minutes at room temperature) before analysis. The cells were visually enumerated by fluorescence microscopy, scoring a minimum of five fields (250 to 300 cells) for fluorescence in triplicate followed by counting all cells in the same field by light microscopy, with a minimum of 750 cells scored per condition. The apoptosis rate is the total number of cells that fluoresce divided by the total cells in the field.
(§10) Apoptosis was induced in three nephropathic cystinotic, two normal, one intermediate cystinotic, and one ocular cystinotic fibroblast lines by three separate inducers. In one experiment, cells were treated with apoptosis inducers as indicated above. Apoptosis in these lines was assessed by CaspACE assay and analyzed by fluorescence microscopy. A minimum of 250 cells was scored per condition, in triplicate. Thus at least 750 cells were scored precondition. T-statistics: P<0.001 for average nephropathic versus average normal. P<0.05 for ocular versus nephropathic. P>0.05 for ocular versus normal, intermediate versus nephropathic, and intermediate versus normal.

Assay [12] deals with GM00379 intermediate cystinotic fibroblasts. Briefly: Apoptosis by apoptotic triggers, CaspACE assay. Particulars: TNF-a 30 ng/mL with actinomycin D 2.5 μg/mL for 16 hours. Here is the method: as §5, §6, §9, §10
The test system of assay [13] is normal fibroblasts (AVG of 2). Briefly: Apoptosis by apoptotic triggers, CaspACE assay. The following applies: TNF-a 30 ng/mL with actinomycin D 2.5 μg/mL for 16 hours, AVG of 2 normal lines. Here is the method: as §5, §6, §9, §10
The subject of assay [14] is GM05399 normal fibroblasts. Briefly: Apoptosis by apoptotic triggers, CaspACE assay. The following applies: TNF-a 30 ng/mL with actinomycin D 2.5 μg/mL for 16 hours. Here is the method:
as §5, §6, §9, §10

The test system of assay [15] is GM00010 normal fibroblasts. Briefly: Apoptosis by apoptotic triggers, CaspACE assay. The following applies: TNF-a 30 ng/mL with actinomycin D 2.5 μg/mL for 16 hours. Here is the method:
as §5, §6, §9, §10

The subject of assay [16] is nephropathic cystinotic fibroblasts (AVG of 3). Briefly: Apoptosis by apoptotic triggers, CaspACE assay. Particulars: TNF-a 30 ng/mL with actinomycin D 2.5 μg/mL for 16 hours, AVG of 3 nephropathic lines. Here is the method:
as §5, §6, §9, §10

Assay [17] has as its system GM00008 nephropathic cystinotic fibroblasts. Briefly: Apoptosis by apoptotic triggers, CaspACE assay. Particulars: TNF-a 30 ng/mL with actinomycin D 2.5 μg/mL for 16 hours. The method, then:
as §5, §6, §9, §10

Assay [18] relates to GM08761 ocular cystinotic fibroblasts. Briefly: Apoptosis by apoptotic triggers, CaspACE assay. The following applies: TNF-a 30 ng/mL with actinomycin D 2.5 μg/mL for 16 hours. Here is the method: as §5, §6, §9, §10
Assay [19] deals with GM00760 nephropathic cystinotic fibroblasts. Briefly: Apoptosis by apoptotic triggers, CaspACE assay. The following applies: TNF-a 30 ng/mL with actinomycin D 2.5 μg/mL for 16 hours. The method, then: as §5, §6, §9, §10

Marks after values point to notes of the source that are not given here.

With `CC/C(=C(\c1ccccc1)c1ccc(OCCN(C)C)cc1)c1ccccc1` [Tamoxifen, tamoxifen, reference compound], the “percent of apoptotic cells (±S.D.)” value in the assay on T-47D (ER+) was found to be 99.91 ± 0.08%; with MCF-7 (ER+), 98.47 ± 0.53%; in the assay on MDA-MB-468 (ER−), 90.37 ± 1.70%; in the assay on MDA-MB-231 (ER−), 98.92 ± 0.99%.

In the case of TNF-a, the “localisation of cathepsin B” value in assay [1] was “translocation of cathepsin B from a lysosomal location to a diffuse cytosolic location”. Further, the “% Apoptosis” value is 15.3* % in assay [2]; 8.2% in [3]; 12.1% in assay [4]; 11.4% in [5]; 12.8% in [6]; 17.2% in [7]. The “% Apoptosis” value in assay [8] was 17.1%; in assay [9], 5.5%; in assay [10], 19.3%; in assay [11] it was 16.1%; in [12] it was 11.4%; in assay [13], 7.8%. Also, the “% Apoptosis” value in assay [14] worked out at 6.3%; in [15] it was 9.2%; in assay [16], 14.8%; in assay [17] it was 14.9%; in assay [18], 8.2%; in assay [19], 13.5%.
